Results taken from article PMC7076710, “Synthesis, Identification, and Structure–Activity Relationship Analysis of GATA4 and NKX2-5 Protein–Protein Interaction Modulators” (Journal of Medicinal Chemistry, 2019).

Legend:
COS-1 cells = experiment: ATP assay (CellTiter-Glo cell viability); format: cell-based; settings: 24-h exposure; for reduction of cell viability (ATP content): 10 μM
Text: To investigate the toxicity as a potential cause of decreased or increased activity in luciferase reporter gene assays, we tested a set of 40 active compounds in the COS-1 cell line used for the luciferase assays. Concentration-dependent toxic effects were investigated using the lactate dehydrogenase (LDH) assay to detect necrosis and the 3-(4,5-dimethylthiazol-2-yl)-2,5-diphenyltetrazolium bromide (MTT) assay as a measure of cell viability. […] For the data analysis, compounds were classified as toxic (Figures 5 and 7) if they induced a >10% decrease in cell viability in the MTT assay at the concentration of 10 μM. The most toxic compounds (35a, 35d, 54, 58, and 63–65) in the MTT assay all contained a phenyl substituent in the southern part ring, while the ortho-nitrophenyl-derivative 39g and the phenyl-substituted thiophene 47t were nontoxic. Higher flexibility in the central parts of the ethers (35a, 35d) and N-acylated amines (58, 64) might contribute to their toxicity, because less rigid compounds are more likely to have affinity to various biological targets. Such interactions can cause toxicity. To confirm and validate the results from MTT assays, we tested three nontoxic (2, 47s, and 72) and three toxic (1, 35a, and 58) compounds in a cell viability assay measuring intracellular ATP content.
Figure 5 Effects of selected compounds on COS-1 cell viability. (A) Compound-induced necrosis was quantified with the LDH assay after a 24-h compound exposure. The data are presented as cytotoxicity percentage (% of maximal LDH release). (B) Cell viability was analyzed with the MTT assay after a 24-h compound exposure. (A,B) The data are means from 2–3 independent experiments with 3 replicate wells in each and are presented as % of control (vehicle-treated cells). The compounds have been grouped on the basis of the structure of the central part: a, amide; b, ether; c, N-acylated amine; d, amine; and e, imine. (C) The effects of selected compounds on cell viability as determined by ATP content after a 24-h compound exposure. The data are mean + SEM from three independent experiments and are presented as % of vehicle-treated cells.
A selected set of compounds were tested also in the ATP assay by using CellTiter-Glo Luminescent Cell Viability assay (Promega). Subculturing and treatment of COS-1 cells were otherwise performed similar to that in the MTT test, but the final volume of treatment was 200 μL per well. Doxorubicin was used as a positive control in the assay. After treatment, the plates were equilibrated at room temperature for 30 min, after which the media was removed and cells were washed with 100 μL of PBS. Next, 50 μL of fresh media and 50 μL of mixed CellTiter Glo Reagent were added to the plate. The contents of the plates were mixed for 2 min, and incubated at room temperature for 15 min. The luminescence was measured with VarioskanTM LUX Multimode Plate Reader (Thermo Fisher Scientific, Waltham, MA) using SkanItTM Software 5.0.

[1] = system: rat BNP promoter activity in neonatal rat ventricular myocytes; experiment: BNP promoter luciferase reporter in neonatal cardiomyocytes with or without endothelin-1; format: cell-based; settings: neonatal cardiomyocytes, 24 h
Method: Five compounds (GATA4–NKX2-5 synergy inhibitors 1, 61, and 65; the synergy activator 2; and the NKX2-5 activity inhibitor 47c) were selected for studies in neonatal cardiomyocytes, which were treated with endothelin-1 (ET-1), a well-established hypertrophic agonist that activates the gene expression of both ANP and BNP (Figure 4). The myocytes were transfected with construct containing −534/+4 proximal region of rat BNP promoter with GATA4 and NKX2-5 binding sites in front of luciferase before exposure to compounds and ET-1, which was added 1 h after the compounds.
Figure 4 Effects of the compounds 1, 2, 47c, 61, and 65 on BNP gene activation in cardiomyocytes. Neonatal cardiomyocytes were transfected with rat BNP luciferase reporter for 24 h. The cells were exposed to compounds and 1 h later to endothelin-1 (ET-1) for 24 h. The results are expressed as +SD (n = 3 or 9 for DMSO groups). ***P < 0.001 vs DMSO; **P < 0.01 vs DMSO; *P < 0.05 vs DMSO (one-way ANOVA followed by Tukey’s HSD or Welch ANOVA followed by Games–Howell); ^###P < 0.001 vs DMSO, no stimulus (independent samples Student’s t test).
The plasmids expressing mouse GATA4 protein, pMT2-GATA4, and empty pMT2 were gifts from D. B. Wilson (Department of Pediatrics, St. Louis Children’s Hospital, St. Louis, MO).[44] The plasmids expressing mouse NKX2-5 protein, pMT2-NKX2-5, have been described earlier.[28] The luciferase reporter plasmid used in GATA4–NKX2-5 transcriptional synergy assay and NKX transcriptional assay, pGL3-3xHA, contains three high affinity binding sites for NKX2-5.[28] The luciferase reporter plasmid used in GATA transcriptional assay, NP-112, contains tandem GATA-sites and minimal promoter of rat brain natriuretic peptide (BNP) gene.[45] The pGL3-BNP luciferase reporter containing −534/+4 bp rat BNP proximal promoter described previously was used in hypertrophy assay.[46]
The neonatal rat ventricular myocytes were isolated from 2- to 3-day-old Wistar rats, as described earlier.[29],[32] Rat pups were acquired from the experimental animal facility of the University of Helsinki with an internal use license (KEK17-012). Animals were housed in standard conditions, and their handling and all procedures were carried out in accordance with University of Helsinki institutional guidelines, which conform to the National Research Council (U.S.) Guide for the Care and Use of Laboratory Animals.[47] The cells were seeded at 50 000 cells/well in Isoplate-96 microplates (PerkinElmer, Turku, Finland) and cultured for 18–20 h with Dulbecco’s modified Eagle medium (DMEM)/F12 culture medium containing 2.5 mM L-glutamine, supplemented with 100 IU/mL penicillin–streptomycin and 10% fetal bovine serum (all from Gibco, Thermo Scientific). Transfections were carried out for 24 h in serum free media (CSFM; DMEM/F12, 2.5 mg/mL bovine serum albumin, 1 μM insulin, 2.5 mM L-glutamine, 32 nM selenium, 2.8 mM sodium pyruvate, 5.64 μg/mL transferrin, 1 nM T3, and 100 IU/mL PS) by using 100 ng of pGL3-BNP luciferase plasmid per well in a 1:3 ratio of DNA/transfection reagent (Fugene 6, Promega). […] After 24 h, the luminescence was measured as above.
Results from cardiomyocyte experiments are expressed as mean + SD from at least three independent experiments. Data were analyzed using IBM SPSS Statistics 24 software. […] Significance between ET-1 and DMSO samples was analyzed with independent samples Student’s t test. […]

Row | Molecule | reduction of cell viability (ATP content) (COS-1 cells) [%] | effect on BNP promoter activity in cardiomyocytes (in words) [1] | toxicity in the ATP assay (in words) (COS-1 cells)
1 | CCC(=O)N(Cc1ccc(N(CC)CC)cc1)c1c(-c2ccccc2)noc1C [Compound 58] | > 10 |  | 
2 | CCN(CC)c1ccc(NC(=O)c2c(-c3ccccc3)noc2C)cc1 [Compound 1, N-[4-(Diethylamino)phenyl]-5-methyl-3-phenylisoxazole-4-carboxamide] | > 10 |  | 
3 | Cc1onc(-c2ccccc2)c1COc1ccc(C(=O)OCCC#N)cc1 [Compound 35a, 2-Cyanoethyl 4-[(5-Methyl-3-phenylisoxazol-4-yl)methoxy]benzoate] | > 10 |  | 
4 | N-[4-(Diethylamino)phenyl]-3-methyl-5-(4-methyl-1,2,3-thiadiazol-5-yl)isoxazole-4-carboxamide [Compound 47c] |  | increased BNP promoter activity | 
5 | COc1ccc(-c2cc(NC(=O)c3ccc(C(C)(C)C)cc3)n[nH]2)cc1 [Compound 72] |  |  | no toxicity
6 | Cc1onc(-c2ccccc2)c1C(=O)N(C1=NC(C)CS1)c1ccc(Cl)cc1 (centres unmarked) [Compound 2] |  | increased BNP promoter activity | no toxicity
7 | CCN(CC)c1ccc(NC(=O)c2cnsc2)cc1 [Compound 47s] |  |  | no toxicity
